Results as given in US8003602B2 (priority 2006, dated 2011).
Values after ≈ are worked out from the molar mass of the structure shown.

How the values were obtained:
[1] = tested on: methicillin resistant Staphylococcus aureus E710 (MRSA); experiment: Systemic infection model (septicemia); assay type: in vivo, Balb/C mice; conditions: mice infected intraperitoneally with MRSA E710, administered intravenously immediately after infection
From the text: (§1) The in-vivo potency was established by protection dose (PD) determinations of the compound PM181104 for its antibiotic activity in three animal models using either male or female Balb/C mice.
(§2) The models used were the general purpose efficacy testing models and organ/tissue specific efficacy testing models. The general purpose efficacy testing models used were systemic infection model (septicemia), and localized infection model (neutropenic thigh model). The Organ/Tissue specific infection models used for efficacy testing were kidney, lung infection, and skin abscess model.
The animals were infected intraperitoneally with ˜10^8 to 10^9 cfu of an overnight grown culture of methicillin resistant Staphylococcus aureus E710 (MRSA), suspended in normal saline (0.85% sodium chloride). PM181104 solution was prepared in cremophor-ethanol formulation as described in example 14. The solution was administered intravenously at 5 mg, 2.5 mg and 1.25 mg/kg doses, immediately after infection. Each experimental group consisted of ten animals.

[2] = tested on: E. faecium D 18F; experiment: MIC, Macro-broth dilution method; assay type: cell-based, Enterococcus faecium
From the text: (§3) The in-vitro potency was established by minimum inhibitory concentration (MIC) determinations of the compound PM181104 against bacterial strains, by using the Macro-broth dilution method as per National Committee for Clinical Laboratory Standards (2000) guidelines [Journal of Anti-microbial Chemotherapy, 2002, 50, 125-128 (Cross Reference 8: Methods for Dilution Antimicrobial Susceptibility Tests for Bacteria that Grow Aerobically-Fifth Edition: Approved Standard M7-A5. NCCLS, Wayne, Pa., USA)]. Unless stated otherwise, Mueller-Hinton broth was used as nutrient medium for the assay. Linezolid (manufactured by Glenmark Pharma Ltd; Batch no: K2005028) was used as known standard in all in-vitro experiments. For preparation of the stock solution the compound PM181104 was dissolved in chloroform (5% of the total required volume) and diluted using methanol (95% of the total required volume).

[3] = tested on: E. faecium D-59; experiment: MIC, Macro-broth dilution method; assay type: cell-based, Enterococcus faecium
From the text: as §3

[4] = tested on: E. faecium (VR-1); experiment: MIC, Macro-broth dilution method; assay type: cell-based, Enterococcus faecium
From the text: as §3

[5] = tested on: E. faecium 4045H; experiment: MIC, Macro-broth dilution method; assay type: cell-based, Enterococcus faecium
From the text: as §3

[6] = tested on: E. faecium (O2-D3IP1); experiment: MIC, Macro-broth dilution method; assay type: cell-based, Enterococcus faecium
From the text: as §3

[7] = solvents in which soluble
From the text: The physico-chemical and spectral properties of the compound PM181104

[8] = tested on: Enterococcus faecium ATCC 47077; experiment: Kidney infection model; assay type: in vivo, Balb/C mice; conditions: 5 mg/kg intravenously at 4, 24 and 48 hours post-infection, kidneys harvested at 72 hours
From the text: as §1, §2
0.2 ml of 2% λ Carrageenan was administered intravenously to Balb/C mice 7 days prior to infection. Overnight grown log phase culture of Enterococcus faecium ATCC 47077 adjusted to approximately 10^9 cfu/ml, was injected intravenously to the mice at a volume of 0.2 ml. PM181104 solution, prepared in cremophor-ethanol formulation as described in example 14, was administered intravenously to the mice at 4 hours, 24 hours and 48 hours post-infection. At 72 hours post infection, the animals were sacrificed and kidneys were harvested to determine the bacterial load. […] Linezolid (manufactured by Glenmark Pharma Ltd; Batch no: K2005028) at 25 mg/kg and Vancomycin hydrochloride (manufactured by HiMedia; Catalogue no: RM217-500 mg; Lot no: 06-0350) at 150 mg/kg dose.

[9] = tested on: E. faecalis ATCC BAA 472; experiment: MIC, Macro-broth dilution method; assay type: cell-based
From the text: as §3

[10] = tested on: Streptococcus equinus 02 D5 Gr1; experiment: MIC, Macro-broth dilution method; assay type: cell-based
From the text: as §3

[11] = tested on: E. faecalis (uD.8b); experiment: MIC, Macro-broth dilution method; assay type: cell-based
From the text: as §3

[12] = tested on: Streptococcus durans 4939 (1) H; experiment: MIC, Macro-broth dilution method; assay type: cell-based
From the text: as §3

[13] = tested on: E. faecalis (FH-1); experiment: MIC, Macro-broth dilution method; assay type: cell-based
From the text: as §3

[14] = tested on: Streptococcus durans; experiment: MIC, Macro-broth dilution method; assay type: cell-based
From the text: as §3

[15] = tested on: Citrobacter diversus 2046 E; experiment: MIC, Macro-broth dilution method; assay type: cell-based
From the text: as §3

[16] = tested on: Pse. aeruginosa (M-35); experiment: MIC, Macro-broth dilution method; assay type: cell-based
From the text: as §3

[17] = tested on: E. coli SS; experiment: MIC, Macro-broth dilution method; assay type: cell-based
From the text: as §3

[18] = tested on: E. faecalis 4073H; experiment: MIC, Macro-broth dilution method; assay type: cell-based
From the text: as §3

[19] = tested on: Streptococcus hirae 55; experiment: MIC, Macro-broth dilution method; assay type: cell-based
From the text: as §3

[20] = tested on: Enterococci KEM-VRE28; experiment: MIC, Macro-broth dilution method; assay type: cell-based
From the text: as §3

[21] = tested on: Enterococci KEM-VRE29; experiment: MIC, Macro-broth dilution method; assay type: cell-based
From the text: as §3

[22] = tested on: Klebsiella pneumoniae; experiment: MIC, Macro-broth dilution method; assay type: cell-based
From the text: as §3

[23] = tested on: Enterococci KEM-VRE27; experiment: MIC, Macro-broth dilution method; assay type: cell-based
From the text: as §3

[24] = tested on: Salmonella typhi Para A; experiment: MIC, Macro-broth dilution method; assay type: cell-based
From the text: as §3

[25] = tested on: Enterococci KEM-VRE26; experiment: MIC, Macro-broth dilution method; assay type: cell-based
From the text: as §3

[26] = tested on: S. aureus E-710; experiment: Lung infection model; assay type: in vivo, Balb/C mice; conditions: 5 mg/kg intravenously at 24 and 36 hours post infection, lungs collected at 48 hours
From the text: as §1, §2
Balb/C mice were rendered neutropenic by intraperitoneally administering 200 mg/kg cyclophosphamide four days and two days prior to infection. On the day of infection, the mice were anesthetized and infected with S. aureus E-710 log-phase culture suspension having bacterial density of approximately 10^6 to 10^7 cfu/ml. 24 and 36 hours post infection the first and second respective dose of drug was administered intravenously. 48 hours post infection, the animals were humanely euthanized and their lungs were aseptically collected to determine the viable count of bacteria. In this model, PM181104 was tested at 5 mg/kg dose prepared in cremophor-ethanol formulation as described in example 14. Two standard antibiotics viz. Linezolid (80 mg/kg single dose at 24 hours post infection) and Vancomycin (110 mg/kg, two doses at 24 and 48 hours post infection) were used as positive controls.

Which PD100 [1] does the source give for `C=C(NC(=O)C(=C)NC(=O)C1CCCN1C(=O)c1nc(-c2ccc(-c3nc(C(=O)NC(=C)C(=O)NC(C)C(N)=O)cs3)c(-c3csc(C4Cc5nc(cs5)C(=O)NC(Cc5ccccc5)C5=NC(CS5)C(=O)NC(Cc5ccc(O)cc5)C(=O)N5CCCC5c5nc(cs5)C(=O)N4)n3)n2)oc1C)C(N)=O` (stereo not drawn) [PM181104] here?
Its PD100 is 5 mg/kg.

What about the MIC [2] of the same molecule?
The MIC was 7.81 ng/mL (≈ 5.15 nM).

What about the MIC [3] of the same molecule?
The MIC was 7.81 ng/mL (≈ 5.15 nM).

What about the MIC [4] of the same molecule?
The MIC was 7.81 ng/mL (≈ 5.15 nM).

And the MIC [5]?
The MIC was 7.81 ng/mL (≈ 5.15 nM).

And the MIC [6]?
Its MIC is 3.91 ng/mL (≈ 2.58 nM).

What about the Solubility [7] of the same molecule?
Its Solubility is “Methanol, DMSO”.

And the “decrease in bacterial count in kidneys” value [8]?
The value was “approximately 1 log”.

What about the MIC [9] of the same molecule?
The MIC was 15.63 ng/mL (≈ 10.3 nM).

What about the MIC [10] of the same molecule?
Its MIC is 15.63 ng/mL (≈ 10.3 nM).

And the MIC [11]?
The MIC was 3.91 ng/mL (≈ 2.58 nM).

What about the MIC [12] of the same molecule?
The MIC was 7.81 ng/mL (≈ 5.15 nM).

What about the MIC [13] of the same molecule?
The MIC was 3.91 ng/mL (≈ 2.58 nM).

What about the MIC [14] of the same molecule?
Its MIC is 7.81 ng/mL (≈ 5.15 nM).

What about the MIC [15] of the same molecule?
The MIC was >1000 ng/mL.

What about the MIC [16] of the same molecule?
The MIC was >1000 ng/mL.

And the MIC [17]?
The MIC was >1000 ng/mL.

And the MIC [18]?
Its MIC is 7.81 ng/mL (≈ 5.15 nM).

And the MIC [19]?
The MIC was 3.91 ng/mL (≈ 2.58 nM).

And the MIC [20]?
Its MIC is 7.81 ng/mL (≈ 5.15 nM).

And the MIC [21]?
The MIC was 3.91 ng/mL (≈ 2.58 nM).

What about the MIC [22] of the same molecule?
The MIC was >1000 ng/mL.

And the MIC [23]?
Its MIC is 3.91 ng/mL (≈ 2.58 nM).

And the MIC [24]?
Its MIC is >1000 ng/mL.

And the MIC [25]?
The MIC was 7.81 ng/mL (≈ 5.15 nM).

What about the “activity profile in lung infection” value [26] of the same molecule?
Its value is “bacteriostatic activity”.

What about the “difference in the bacterial count in the lungs as compared to untreated control animals” value [26] of the same molecule?
The value was “approximately 2 log”.
